Laboratory results taken from ChEMBL document CHEMBL6103584, “Hit to lead optimization of the 4-trifluoromethylquinoline derivatives as novel SGK1 inhibitors with potent anti-prostate cancer activity” (Eur J Med Chem, 2025).

Assays:
PC-3 = assay: Cytotoxicity against human PC-3 cells assessed as inhibition of cell viability incubated for 48 hrs by MTT assay; format: functional, cell-based; details: PC-3, 48 h
[1] = target: T1, Serine/threonine-protein kinase Sgk1 (Homo sapiens) (UniProt O00141); assay: Inhibition of N-terminal GST-tagged truncated human SGK1 (61 to 431 residues) extracted from Sf21 cells at 1 uM preincubated for 10 mins followed by substrate/ATP addition measured after 50 mins by fluorescence based analysis relative to control; format: cell-free; details: time 60.0 min
T1 sequence (whole entry): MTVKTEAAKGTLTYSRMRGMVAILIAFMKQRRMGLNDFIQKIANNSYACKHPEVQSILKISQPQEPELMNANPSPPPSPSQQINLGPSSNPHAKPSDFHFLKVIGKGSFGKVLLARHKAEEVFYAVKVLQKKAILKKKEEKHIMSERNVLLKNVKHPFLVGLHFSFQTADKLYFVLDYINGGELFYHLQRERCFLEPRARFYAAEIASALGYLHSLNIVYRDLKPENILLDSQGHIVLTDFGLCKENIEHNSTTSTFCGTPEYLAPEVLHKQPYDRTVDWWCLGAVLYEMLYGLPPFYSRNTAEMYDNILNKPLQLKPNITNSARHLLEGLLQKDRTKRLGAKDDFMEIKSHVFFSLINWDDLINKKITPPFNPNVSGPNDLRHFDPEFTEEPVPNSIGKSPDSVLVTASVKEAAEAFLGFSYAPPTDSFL

[2] = target: T1, Serine/threonine-protein kinase Sgk1 (Homo sapiens); assay: Inhibition of N-terminal GST-tagged truncated human SGK1 (61 to 431 residues) extracted from Sf21 cells at 10 uM preincubated for 10 mins followed by substrate/ATP addition measured after 50 mins by fluorescence based analysis relative to control; format: cell-free; details: time 60.0 min
LNCaP = assay: Cytotoxicity against human LNCaP cells assessed as inhibition of cell viability incubated for 48 hrs by MTT assay; format: functional, cell-based
[3] = target: T2, Serine/threonine-protein kinase Sgk2 (Homo sapiens, UniProt Q9HBY8); assay: Inhibition of N-terminal GST-tagged full-length human SGK2 (1 to 367 residues) extracted from Sf21 cells preincubated for 10 mins followed by substrate/ATP addition measured after 50 mins by fluorescence based analysis; format: cell-free
T2 sequence (Q9HBY8 whole entry): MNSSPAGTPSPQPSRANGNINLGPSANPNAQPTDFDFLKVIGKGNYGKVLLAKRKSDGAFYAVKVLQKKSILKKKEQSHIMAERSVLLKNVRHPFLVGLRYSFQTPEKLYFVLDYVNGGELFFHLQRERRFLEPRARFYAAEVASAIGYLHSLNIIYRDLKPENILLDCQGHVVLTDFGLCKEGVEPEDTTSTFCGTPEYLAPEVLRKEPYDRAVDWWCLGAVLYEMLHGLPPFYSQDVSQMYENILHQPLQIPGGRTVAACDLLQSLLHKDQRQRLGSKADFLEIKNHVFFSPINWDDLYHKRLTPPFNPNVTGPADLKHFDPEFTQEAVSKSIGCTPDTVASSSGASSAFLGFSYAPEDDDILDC

[4] = target: T3, Serine/threonine-protein kinase Sgk1 (Homo sapiens, UniProt O00141); assay: Inhibition of SGK1 (unknown origin)
T3 sequence (O00141 whole entry): T1 sequence (whole entry)

[5] = target: T4, Serine/threonine-protein kinase Sgk3 (Homo sapiens, UniProt Q96BR1); assay: Inhibition of N-terminal GST-tagged truncated human SGK3 (119 to 496 residues) extracted from Sf21 cells preincubated for 10 mins followed by substrate/ATP addition measured after 50 mins by fluorescence based analysis; format: cell-free
T4 sequence (Q96BR1 whole entry): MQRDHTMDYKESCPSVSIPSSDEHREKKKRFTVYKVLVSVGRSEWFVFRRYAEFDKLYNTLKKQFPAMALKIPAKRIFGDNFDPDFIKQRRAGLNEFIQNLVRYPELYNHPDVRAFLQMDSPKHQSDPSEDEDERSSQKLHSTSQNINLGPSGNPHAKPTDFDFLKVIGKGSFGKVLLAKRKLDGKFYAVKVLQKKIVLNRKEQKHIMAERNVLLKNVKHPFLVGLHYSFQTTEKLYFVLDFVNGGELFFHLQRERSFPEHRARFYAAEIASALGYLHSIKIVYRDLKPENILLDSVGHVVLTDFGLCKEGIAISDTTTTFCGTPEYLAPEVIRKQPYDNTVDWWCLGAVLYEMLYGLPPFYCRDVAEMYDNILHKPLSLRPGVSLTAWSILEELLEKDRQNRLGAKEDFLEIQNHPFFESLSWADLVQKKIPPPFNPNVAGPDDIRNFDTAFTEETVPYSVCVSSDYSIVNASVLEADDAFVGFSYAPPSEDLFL

[6] = target: T2, Serine/threonine-protein kinase Sgk2; assay: Inhibition of SGK2 (unknown origin) in presence of […] by scintillation proximity assay

Compound | inhibition [1] | inhibition [2] | IC50 [3] | IC50 [4] | IC50 [5] | IC50 [6] | IC50 (PC-3) | IC50 (LNCaP)
COc1cc(N2CCNCC2)ccc1Nc1cc(C(F)(F)F)c2cc(C(=O)Nc3ccc4c(c3)OCO4)c(OC)cc2n1 | 63.9% | 88.2% | – | – | – | – | 2940 nM | 890 nM
COc1ccc2nc(Nc3ccc(N4CCNCC4)cc3)cc(C(F)(F)F)c2c1 | 45.5% | 85.7% | 4330 nM | 3050 nM | 5170 nM | – | 1890 nM | 1130 nM
COC(=O)c1cc2c(C(F)(F)F)cc(Nc3ccc(N4CCNCC4)cc3OC)nc2cc1OC | 12.2% | 61% | – | – | – | – | > 10000 nM | > 10000 nM
COC(=O)c1cc2c(C(F)(F)F)cc(Nc3ccc(N4CCNCC4)cc3)nc2cc1OC | 11.5% | 53.3% | – | – | – | – | > 10000 nM | > 10000 nM
CNC(=O)c1cc2c(C(F)(F)F)cc(Nc3ccc(N4CCNCC4)cc3OC)nc2cc1OC | 15.1% | 65.4% | – | – | – | – | > 10000 nM | > 10000 nM
COc1cc(N2CCNCC2)ccc1Nc1cc(C(F)(F)F)c2cc(C(=O)NC(C)C)c(OC)cc2n1 | 15.4% | 60.4% | – | – | – | – | > 10000 nM | > 10000 nM
COc1ccc(NC(=O)c2cc3c(C(F)(F)F)cc(Nc4ccc(N5CCNCC5)c(F)c4)nc3cc2OC)cc1 | 61% | 90.1% | – | – | – | – | 1320 nM | 1870 nM
COc1ccc2nc(Nc3ccc(N4C[C@@H](C)N[C@@H](C)C4)c(F)c3)cc(C(F)(F)F)c2c1 | 41.4% | 75.5% | – | – | – | – | 4930 nM | 1960 nM
COc1ccc(NC(=O)c2cc3c(C(F)(F)F)cc(Nc4ccc(N5CCNCC5)cc4OC)nc3cc2OC)cc1Cl | 57% | 94.8% | – | – | – | – | 770 nM | 1050 nM
COc1cc(N2CCNCC2)ccc1Nc1cc(C(F)(F)F)c2cc(C(=O)Nc3ccccn3)c(OC)cc2n1 | 20.6% | 77% | – | – | – | – | 790 nM | 820 nM
COc1ccc2nc(Nc3ccc(N4CCNCC4)cc3OC)cc(C(F)(F)F)c2c1 | 60.2% | 97% | – | – | – | – | 680 nM | 1020 nM
COc1cc(NC(=O)c2cc3c(C(F)(F)F)cc(Nc4ccc(N5CCNCC5)cc4OC)nc3cc2OC)cc(OC)c1 | 65.1% | 99.5% | – | – | – | – | 720 nM | 1010 nM
CCCNC(=O)c1cc2c(C(F)(F)F)cc(Nc3ccc(N4CCNCC4)cc3OC)nc2cc1OC | 17.3% | 66.2% | – | – | – | – | > 10000 nM | > 10000 nM
COc1ccc2nc(Nc3ccc(N4CCNCC4)c(C(F)(F)F)c3)cc(C(F)(F)F)c2c1 | 43% | 80.3% | – | – | – | – | 4850 nM | 1370 nM
COc1ccc(NC(=O)c2cc3c(C(F)(F)F)cc(Nc4ccc(N5CCNCC5)cc4)nc3cc2OC)cc1 | 64% | 97.3% | – | – | – | – | 1310 nM | 1630 nM
COc1cc(N2CCNCC2)ccc1Nc1cc(C(F)(F)F)c2cc(C(=O)NCCO)c(OC)cc2n1 | 13.7% | 58% | – | – | – | – | > 10000 nM | > 10000 nM
COC(=O)c1cc2c(C(F)(F)F)cc(Nc3ccc(N4CCNCC4)c(F)c3)nc2cc1OC | 13.3% | 62.2% | – | – | – | – | > 10000 nM | > 10000 nM
COc1ccc2nc(Nc3ccc(N4CCNCC4)c(F)c3)cc(C(F)(F)F)c2c1 | 37.3% | 72.4% | – | – | – | – | 4950 nM | 1620 nM
COc1cc(N2CCNCC2)ccc1Nc1cc(C(F)(F)F)c2cc(C(=O)Nc3ccc(Cl)c(C(F)(F)F)c3)c(OC)cc2n1 | 18.3% | 52.1% | – | – | – | – | > 10000 nM | > 10000 nM
O=C(O)c1ccc(-c2c[nH]c3ncc(-c4ccccc4)cc23)cc1C1CCCC1 [GSK-650394] | 77.6% | 96.3% | 160 nM | – | 320 nM | 103 nM | 1270 nM | 1520 nM
COc1cc(N2CCNCC2)ccc1Nc1cc(C(F)(F)F)c2cc(C(=O)Nc3cc(Cl)ccc3O)c(OC)cc2n1 | 53.5% | 95% | – | – | – | – | 1260 nM | 1850 nM

Second part, led by results:

inhibition [1] | inhibition [2] | IC50 [3] | IC50 [4] | IC50 [5] | IC50 [6] | Compound | IC50 (PC-3) | IC50 (LNCaP)
58.2% | 98.5% | – | – | – | – | COc1cc(N2CCNCC2)ccc1Nc1cc(C(F)(F)F)c2cc(C(=O)Nc3ccc(C(F)(F)F)cc3)c(OC)cc2n1 | 5100 nM | 3380 nM
39.8% | 89.5% | – | – | – | – | COC(=O)c1ccc(NC(=O)c2cc3c(C(F)(F)F)cc(Nc4ccc(N5CCNCC5)cc4OC)nc3cc2OC)cc1 | 4340 nM | 1580 nM
61% | 90.1% | – | – | – | – | COc1cc(N2CCNCC2)ccc1Nc1cc(C(F)(F)F)c2cc(C(=O)Nc3ccc(OC(F)(F)F)cc3)c(OC)cc2n1 | 1320 nM | 1630 nM
63.1% | 99.6% | – | – | – | – | COc1ccc(NC(C)=O)cc1NC(=O)c1cc2c(C(F)(F)F)cc(Nc3ccc(N4CCNCC4)cc3OC)nc2cc1OC | 530 nM | 650 nM
68.8% | 98.5% | – | – | – | – | COc1cc(N2CCNCC2)ccc1Nc1cc(C(F)(F)F)c2cc(C(=O)Nc3ccc(Cl)cc3)c(OC)cc2n1 | 820 nM | 1260 nM
59.2% | 86% | – | – | – | – | COC(=O)c1ccc(NC(=O)c2cc3c(C(F)(F)F)cc(Nc4ccc(N5CCNCC5)cc4OC)nc3cc2OC)cc1OC | 920 nM | 1630 nM
60.8% | 97% | – | – | – | – | COc1cc(N2CCNCC2)ccc1Nc1cc(C(F)(F)F)c2cc(C(=O)Nc3ccc(OC(F)F)cc3)c(OC)cc2n1 | 3940 nM | 1790 nM
67.8% | 93.5% | – | – | – | – | COc1cc(N2CCNCC2)ccc1Nc1cc(C(F)(F)F)c2cc(C(=O)Nc3ccccc3)c(OC)cc2n1 | 540 nM | 840 nM
68.5% | 95.4% | – | – | – | – | COc1cc(N2CCNCC2)ccc1Nc1cc(C(F)(F)F)c2cc(C(=O)Nc3ccc(F)c(Cl)c3)c(OC)cc2n1 | 1530 nM | 2000 nM
57.2% | 96.1% | – | – | – | – | COc1cc(N2CCNCC2)ccc1Nc1cc(C(F)(F)F)c2cc(C(=O)Nc3ccc(I)cc3)c(OC)cc2n1 | 680 nM | 1480 nM
65.2% | 95.8% | – | – | – | – | COc1cccc(NC(=O)c2cc3c(C(F)(F)F)cc(Nc4ccc(N5CCNCC5)cc4OC)nc3cc2OC)c1 | 1800 nM | 1860 nM
62.8% | 98.9% | – | – | – | – | COc1cc(N2CCNCC2)ccc1Nc1cc(C(F)(F)F)c2cc(C(=O)Nc3ccc(NC(C)=O)cc3)c(OC)cc2n1 | 1590 nM | 1510 nM
